Tests used:
[1] = cited from earlier work
3T3-L1 cells [2] = test: Dedifferentiation of mature adipocytes, lipid accumulation by Oil Red O, Test Example 8; type: cell-based; settings: added to adipocyte maturation medium, 100, 250 or 500 μM α-lipoic acid, 4 days; nanoparticles of Example 20A
Experimental: 1.5 ml of D-MEM medium (D-MEM medium supplemented with 10% FCS, 100 units/ml of penicillin, and 100 μg/ml of streptomycin, all at final concentrations) was added to a plastic petri dish having a diameter of 3.5 cm. To this, 5.0×10^4 cells of 3T3-L1 cells, which are preadipocytes, were suspended, and precultured for 3 days to result in a confluent state. Thereafter, the medium was replaced with 3 ml of an adipocyte differentiation induction medium (D-MEM medium supplemented with 10% FCS, 100 units/ml of penicillin, 100 μg/ml of streptomycin, 5 μg/ml of insulin, 0.25 μM of dexamethasone, and 0.5 mM of isobutyl-methylxanthine, all at final concentrations), and the culturing was carried out for 4 days to induce the differentiation into adipocytes. Thereafter, the medium was replaced with an adipocyte maturation medium (D-MEM medium supplemented with 10% FCS, 100 units/ml of penicillin, 100 μg/ml of streptomycin, and 5 μg/ml of insulin, all at final concentrations), and the culturing was carried out for 7 days. Thereafter, the medium was replaced with a test medium, and culturing was carried out for another 4 days. […]
The amount of accumulated lipids in the cultured cells thus obtained was measured. […] The total amount of this solution was recovered, and the absorbance at a wavelength of 520 nm was measured with a spectrophotometer.

3T3-L1 cells [3] = test: Differentiation of preadipocytes, lipid accumulation by Oil Red O, Test Example 7; type: cell-based; settings: added to adipocyte differentiation induction medium, 100, 250 or 500 μM α-lipoic acid, 4 days; nanoparticles of Example 20A
Experimental: 1.5 ml of D-MEM medium (D-MEM medium supplemented with 10% FCS, 100 units/ml of penicillin, and 100 μg/ml of streptomycin, all at final concentrations) was added to a plastic petri dish having a diameter of 3.5 cm. To this, 5.0×10^4 cells of 3T3-L1 cells, which are preadipocytes, were suspended, and precultured for 3 days to result in a confluent state. Thereafter, the medium was replaced with 3 ml of an adipocyte differentiation induction medium (D-MEM supplemented with 10% FCS, 100 units/ml of penicillin, 100 μg/ml of streptomycin, 5 μg/ml of insulin, 0.25 μM of dexamethasone, and 0.5 mM of isobutyl-methylxanthine (IBMX), all at final concentrations). After another 2 days, the medium was replaced with 3 ml of the adipocyte differentiation induction medium of the same composition, and then the culturing was carried out for 2 days. Thus, the culturing in the adipocyte differentiation induction medium was carried out for 4 days in total. During this culturing, an α-lipoic acid solution or the α-lipoic acid-MgCO3 nanoparticle solution of Example 20A was added to the adipocyte differentiation induction medium to result in 0, 100, 250 or 500 μM of α-lipoic acid concentration. […]
The amount of accumulated lipids in the cultured cells thus obtained was measured. […] The whole amount of this solution was recovered, and the absorbance at a wavelength of 520 nm was measured with a spectrophotometer.

[4] = Thermostability test of preparation, Test Example 1 (60° C., HPLC); type: physicochemical; settings: for Residual ratio(%) of α-lipoic acid: 60° C.
Experimental: The α-lipoic acid-MgCO3 nanoparticles produced in Example 1A, and the α-lipoic acid nanoparticles produced in Comparative Example 1A without adding magnesium chloride and sodium carbonate were respectively heated at 60° C., and the amounts of α-lipoic acid in the sample after one hour of heating and after 3 hours of heating were analyzed by HPLC. As a control, a reagent α-lipoic acid was used. The amount of α-lipoic acid after heating was divided by the amount of α-lipoic acid before heating, and the result was multiplied by 100 such that the residual ratio of α-lipoic acid was calculated. Symbol Δ represents the results of control reagent of α-lipoicacid, symbol ▪ represents the results of the α-lipoic acid dispersion liquid of Comparative Example 1, and symbol □ represents the results of the α-lipoic acid-MgCO3 nanoparticles of Example 1A.

[5] = Improvement in sulfurous odor, Test Example 2 (left indoors under sunlight); type: physicochemical; settings: 0.1% α-lipoic acid in water, after two weeks
Description: The paste after freeze-drying of the α-lipoic acid-MgCO3 nanoparticles produced in Example 1A, and the paste after freeze-drying of the α-lipoic acid nanoparticles produced in Comparative Example 1A without adding magnesium chloride and sodium carbonate, were respectively dispersed in distilled water such that the final concentration of α-lipoic acid reached 0.1%. The dispersions were placed in transparent test tubes made of resin, and the test tubes were left to stand indoors under sunlight. As a control, an aqueous dispersion liquid having α-lipoic acid dissolved in water (final concentration of α-lipoic acid 0.1%), which was prepared by adding an alkali (5M NaOH) to reagent α-lipoic acid, and thereby adjusting the pH to 7 to 7.5, was also left to stand in the same manner.

SMILES	pKa value [1]	amount of lipid accumulation in mature adipocytes (Oil Red O, 520 nm) (3T3-L1 cells [2])	accumulation of lipids in cells (Oil Red O, 520 nm) (3T3-L1 cells [3])	Residual ratio(%) of α-lipoic acid ([4]; heating time 0 hrs)	Residual ratio(%) of α-lipoic acid ([4]; heating time 1 hr)	Residual ratio(%) of α-lipoic acid ([4]; heating time 3 hrs)	reduction of the amount of α-lipoic acid ([4]; after 3 hours of heating at 60° C.)	sulfurous odor [5]
CC1=C(/C=C/C(C)=C/C=C/C(C)=C/C(=O)O)C(C)(C)CCC1 [retinoic acid]	6.4							
O=C(O)CCCCC1CCSS1 (stereo not drawn) [α-lipoic acid]	4.76	almost indifferent from that of the non-added group	reduction of the accumulation of lipids	100%	50.51%	44.20%	about 55%	characteristic sulfurous odor strongly emanated

Reference: US9079874B2, “α-Lipoic acid nanoparticles and methods for preparing thereof” (Ezaki Glico Co., Ltd., priority 2007, dated 2015)
